In patent US8071768B2, “Alkylquinoline and alkylquinazoline kinase modulators” (Janssen Pharmaceutica, N.V., priority 2005, dated 2011):

Experiments:
[1] = target: T1, isolated kinase domain of the human c-kit receptor (Homo sapiens, UniProt P10721); test: c-Kit Fluorescence Polarization Kinase Assay; type: biochemical; conditions: uncertainty ±10%; read-out: ckit IC50
T1 construct: isolated kinase domain of the human c-kit receptor; purchased ProQinase lot SP005
Description: c-Kit Fluorescence Polarization Kinase Assay
The compounds of the present invention are also specific inhibitors of c-Kit. Selection of preferred compounds of Formula I for use as c-Kit inhibitors was performed in the following manner using an in vitro kinase assay to measure inhibition of the isolated kinase domain of the human c-kit receptor in a fluorescence polarization (FP) protocol. The c-kit assay utilized the fluorescein-labeled phosphopeptide and the anti-phosphotyrosine antibody included in the Panvera Phospho-Tyrosine Kinase Kit (Green) supplied by Invitrogen. When c-kit phosphorylated the poly Glu4Tyr, the fluorescein-labeled phosphopeptide was displaced from the anti-phosphotyrosine antibody by the phosphorylated poly Glu4Tyr, thus decreasing the FP value. The c-kit kinase reaction was incubated at room temperature for 45 minutes under the following conditions: 1 nM c-kit (ProQinase, lot SP005), 100 ug/mL poly Glu4Tyr, 50 uM ATP, 5 mM MgCl2, 1 mM DTT, 0.01% Tween-20, 1% DMSO or compound in […], pH 7.5. The kinase reaction was stopped with the addition of EDTA. The fluorescein-labeled phosphopeptide and the anti-phosphotyrosine antibody were added and incubated for 30 minutes at room temperature and fluorescence polarization was read. Data points were an average of triplicate samples. Inhibition and IC50 data analysis were done with GraphPad Prism using a non-linear regression fit with a multiparamater, sigmoidal dose-response (variable slope) equation.

TrkB = target: T2, TrkB (Homo sapiens, UniProt Q16620); test: Trk B Fluorescence Polarization Kinase Assay; type: biochemical; conditions: uncertainty ±10%
T2 construct: purchased Upstate 14-507M
T2 sequence (Q16620 32-822): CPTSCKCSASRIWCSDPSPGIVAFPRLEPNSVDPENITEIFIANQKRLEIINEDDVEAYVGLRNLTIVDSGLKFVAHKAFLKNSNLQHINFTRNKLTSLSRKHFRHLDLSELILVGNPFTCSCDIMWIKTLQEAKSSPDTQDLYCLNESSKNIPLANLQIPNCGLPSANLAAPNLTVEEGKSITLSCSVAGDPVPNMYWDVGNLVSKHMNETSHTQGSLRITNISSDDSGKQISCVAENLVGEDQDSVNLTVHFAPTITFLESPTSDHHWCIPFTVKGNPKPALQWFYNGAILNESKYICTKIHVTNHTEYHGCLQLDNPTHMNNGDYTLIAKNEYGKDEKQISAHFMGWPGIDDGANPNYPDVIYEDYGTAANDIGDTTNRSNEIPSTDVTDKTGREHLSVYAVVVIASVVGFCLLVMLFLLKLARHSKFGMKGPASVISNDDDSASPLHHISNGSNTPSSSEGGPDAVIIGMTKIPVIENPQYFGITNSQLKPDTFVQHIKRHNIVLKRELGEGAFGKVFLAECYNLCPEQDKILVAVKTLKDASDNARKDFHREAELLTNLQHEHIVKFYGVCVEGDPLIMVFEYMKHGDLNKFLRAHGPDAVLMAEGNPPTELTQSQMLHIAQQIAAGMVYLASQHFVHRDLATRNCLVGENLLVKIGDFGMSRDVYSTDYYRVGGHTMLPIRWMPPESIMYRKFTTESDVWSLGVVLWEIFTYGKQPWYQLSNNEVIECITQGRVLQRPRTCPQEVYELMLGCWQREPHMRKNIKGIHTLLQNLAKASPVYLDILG
Outline: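 The TrkB kinase reaction (50 nM enzyme, 20 ug/mL poly Glu4Tyr, 150 uM ATP, 5 mM MgCl2, 1% DMSO) ran 30 minutes at room temperature and was stopped with EDTA. Phosphorylation was detected by fluorescence-polarization displacement of a fluorescein phosphopeptide from an anti-phosphotyrosine antibody. IC50 came from a variable-slope sigmoidal fit of triplicates.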

MV4-11 cells = test: Inhibition of MV4-11 cell proliferation (CellTiterGlo); type: cell-based; conditions: Homo sapiens; 72 hours growth; uncertainty ±20%
Description: Inhibition of MV4-11 and Baf3 Cell Proliferation
To assess the cellular potency of the compounds of the present invention, FLT3 specific growth inhibition was measured in the leukemic cell line MV4-11 (ATCC Number: CRL-9591). MV4-11 cells are derived from a patient with childhood acute myelomonocytic leukemia with an 11q23 translocation resulting in a MLL gene rearrangement and containing an FLT3-ITD mutation (AML subtype M4)(1,2). MV4-11 cells cannot grow and survive without active FLT3ITD.
To measure proliferation inhibition by test compounds, the luciferase based CellTiterGlo reagent (Promega), which quantifies total cell number based on total cellular ATP concentration, was used. […]
Compound dilutions or 0.1% DMSO (vehicle control) are added to cells and the cells are allowed to grow for 72 hours at standard cell growth conditions (37° C., 5% CO2). […] To measure total cell growth an equal volume of CellTiterGlo reagent was added to each well, according to the manufacturer's instructions, and luminescence was quantified. Total cell growth was quantified as the difference in luminescent counts (relative light units, RLU) of cell number at Day 0 compared to total cell number at Day 3 (72 hours of growth and/or compound treatment). One hundred percent inhibition of growth is defined as an RLU equivalent to the Day 0 reading. […]

T1 sequence (P10721 589-937 limits assumed): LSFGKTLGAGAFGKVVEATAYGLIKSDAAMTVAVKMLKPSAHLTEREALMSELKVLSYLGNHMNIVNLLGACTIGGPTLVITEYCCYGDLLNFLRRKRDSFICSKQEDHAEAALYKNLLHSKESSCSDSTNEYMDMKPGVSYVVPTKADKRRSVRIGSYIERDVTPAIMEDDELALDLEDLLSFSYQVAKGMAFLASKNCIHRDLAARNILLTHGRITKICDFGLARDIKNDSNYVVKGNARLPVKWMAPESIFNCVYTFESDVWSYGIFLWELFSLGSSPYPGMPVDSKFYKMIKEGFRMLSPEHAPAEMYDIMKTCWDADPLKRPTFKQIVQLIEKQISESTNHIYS

`CC(C)Oc1ccc(NC(=O)N2CCC(c3ncnc4cc(OCCCN5CCN(C)CC5)ccc34)CC2)cc1` [Compound 39] was tested, and the IC50 [1] was 14 nM, the IC50 (TrkB) was 600 nM and the IC50 (MV4-11 cells) was 14 nM.
